According to patent US6949565B2, “Protein kinase inhibitors” (Develogen Israel Ltd., priority 2000, dated 2005):

Tested on: PKC
Assay: PKC activity inhibition
Format: biochemical

In the case of `O=S(=O)(NCCNCC=Cc1ccc(Br)cc1)c1cccc2cnccc12` [H-89, N-[2-(p-bromocinnamylamino)ethyl]-5-isoquinolinesulfonamide], the IC50 is reported as 31 µM.
